Measured values from patent US10865191B2, “Heterocyclic compounds useful as modulators of TNF alpha” (BRISTOL-MYERS SQUIBB COMPANY, priority 2015, dated 2020).

Target: TNFα (Homo sapiens, UniProt P01375)
Assay: TNF induced HEK-Blue assay (NF-kB-driven secreted alkaline phosphatase reporter)
Format: cell-based
Conditions: TNF induced HEK-Blue assay IC50 value, TNFα 0.5 ng/mL, HEK-Blue-CD40L cells, 18 h
Procedure, shortened: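 HEK-Blue-CD40L cells (NF-kB-driven SEAP reporter), 20,000/well, added after 30 min pre-incubation of compound (0.004–25 μM final) with TNFα 0.5 ng/mL final at 37 °C; 18 h incubation. SEAP read with QUANTI-Blue at 620 nm; IC50 from 4-parameter logistic fit, normalized to unstimulated and stimulated DMSO controls.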

Chain of TNFα (P01375 77-233 limits assumed): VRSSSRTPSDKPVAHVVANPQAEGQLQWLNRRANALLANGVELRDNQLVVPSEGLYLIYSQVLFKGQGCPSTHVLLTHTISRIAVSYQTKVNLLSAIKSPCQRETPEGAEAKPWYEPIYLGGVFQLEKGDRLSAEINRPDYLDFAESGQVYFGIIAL

IC50 [nM]	SMILES
< 1000	CC(Nc1c(Cl)cnc2c(F)cc(-c3cnc(C(C)(C)O)nc3)cc12)c1ccccc1F (racemic) [Example 247, 2-(5-(3-chloro-8-fluoro-4-((1-(2-fluorophenyl)ethyl)amino)quinolin-6-yl)pyrimidin-2-yl)propan-2-ol]
< 1000	CC(Nc1c(Cl)cnc2ccc(-c3cnc(C(C)(C)O)nc3)c(Cl)c12)c1ccccc1F (racemic) [Example 296, 2-(5-(3,5-dichloro-4-((1-(2-fluorophenyl)ethyl)amino)quinolin-6-yl)pyrimidin-2-yl)propan-2-ol]

Same assay, conditions: TNFα 0.5 ng/mL, HEK-Blue-CD40L cells, 18 h; read-out: TNF induced HEK-Blue assay IC50 value

SMILES	IC50 [nM]
CC(Nc1c(Cl)cnc2ccc(-c3ccc(C(C)(C)O)cc3)cc12)c1cccs1 (racemic) [Example 199, 2-(4-(3-chloro-4-((1-(thiophen-2-yl)ethyl)amino)quinolin-6-yl)phenyl)propan-2-ol]	< 1000
CC(Nc1c(Cl)cnc2ccc(-c3ccc(C(C)(C)O)cc3)cc12)c1ccn(C)n1 (racemic) [Example 200, 2-(4-(3-chloro-4-((1-(1-methyl-1H-pyrazol-3-yl)ethyl)amino)quinolin-6-yl)phenyl)propan-2-ol]	1000 to 10000
CC(Nc1c(Cl)cnc2ccc(-c3ccc(C(C)(C)O)cc3)cc12)c1nccn1C (racemic) [Example 201, 2-(4-(3-chloro-4-((1-(1-methyl-1H-imidazol-2-yl)ethyl)amino)quinolin-6-yl)phenyl)propan-2-ol]	10000 to 25000
CC(Nc1c(Cl)cnc2ccc(-c3ccc(C(C)(C)O)cc3)cc12)c1cscn1 (racemic) [Example 202, 2-(4-(3-chloro-4-((1-(thiazol-4-yl)ethyl)amino)quinolin-6-yl)phenyl)propan-2-ol]	< 1000
CC(Nc1c(Cl)cnc2ccc(-c3ccc(C(C)(C)O)cc3)cc12)c1cnco1 (racemic) [Example 203, 2-(4-(3-chloro-4-((1-(oxazol-5-yl)ethyl)amino)quinolin-6-yl)phenyl)propan-2-ol]	< 1000
CC(Nc1c(Cl)cnc2ccc(-c3ccc(C(C)(C)O)cc3)cc12)c1ccoc1 (racemic) [Example 204, 2-(4-(3-chloro-4-((1-(furan-3-yl)ethyl)amino)quinolin-6-yl)phenyl)propan-2-ol]	< 1000
CC(Nc1c(Cl)cnc2ccc(-c3ccc(C(C)(C)O)cc3)cc12)c1cn(C)cn1 (racemic) [Example 205, 2-(4-(3-chloro-4-((1-(1-methyl-1H-imidazol-4-yl)ethyl)amino)quinolin-6-yl)phenyl)propan-2-ol]	< 1000
CC(Nc1c(Cl)cnc2ccc(-c3ccc(C(C)(C)O)cc3)cc12)c1cocn1 (racemic) [Example 206, 2-(4-(3-chloro-4-((1-(oxazol-4-yl)ethyl)amino)quinolin-6-yl)phenyl)propan-2-ol]	10000 to 25000
CC(Nc1c(Cl)cnc2cc(F)c(-c3cnc(C(C)(C)O)nc3)nc12)c1ccccc1F (racemic) [Example 209, 2-(5-(7-chloro-3-fluoro-8-((1-(2-fluorophenyl)ethyl)amino)-1,5-naphthyridin-2-yl)pyrimidin-2-yl)propan-2-ol]	< 1000
CC(Nc1c(Cl)cnc2ccc(-c3ccc(C(C)(C)O)cc3)cc12)c1cncn1C (racemic) [Example 210, 2-(4-(3-chloro-4-((1-(1-methyl-1H-imidazol-5-yl)ethyl)amino)quinolin-6-yl)phenyl)propan-2-ol]	< 1000
CC(Nc1c(Cl)cnc2ccc(-c3ccc(C(C)(C)O)cc3)cc12)c1cncs1 (racemic) [Example 211, 2-(4-(3-chloro-4-((1-(thiazol-5-yl)ethyl)amino)quinolin-6-yl)phenyl)propan-2-ol]	< 1000
CC(C)(O)c1ncc(-c2nc3c(NC(c4ccccc4)C(F)F)c(Cl)cnc3cc2F)cn1 (racemic) [Example 212, 2-(5-(7-chloro-8-((2,2-difluoro-1-phenylethyl)amino)-3-fluoro-1,5-naphthyridin-2-yl)pyrimidin-2-yl)propan-2-ol]	< 1000
Cc1nc2cc(F)c(-c3cnc(C(C)(C)O)nc3)nc2c(NC(c2ccccc2)C(F)F)c1Cl (racemic) [Example 214, 2-(5-(7-chloro-8-((2,2-difluoro-1-phenylethyl)amino)-3-fluoro-6-methyl-1,5-naphthyridin-2-yl)pyrimidin-2-yl)propan-2-ol]	< 1000
C=Cc1cccc(C(Nc2c(Cl)cnc3cc(F)c(-c4cnc(C(C)(C)O)nc4)nc23)C(F)F)c1 (racemic) [Example 216, 2-(5-(7-chloro-8-((2,2-difluoro-1-(3-vinylphenyl)ethyl)amino)-3-fluoro-1,5-naphthyridin-2-yl)pyrimidin-2-yl) propan-2-ol]	< 1000
Cc1nc2ccc(-c3cnc(C(C)(C)O)nc3)cc2c(NC(C)c2ccccc2F)c1Cl (racemic) [Example 218, 2-(5-(3-chloro-4-((1-(2-fluorophenyl)ethyl)amino)-2-methylquinolin-6-yl)pyrimidin-2-yl)propan-2-ol]	< 1000
CC(C)(O)c1ncc(-c2ccc3ncc(Cl)c(NC(c4ccccc4F)C(C)(C)F)c3c2)cn1 (racemic) [Example 229, 2-(5-(3-chloro-4-((2-fluoro-1-(2-fluorophenyl)-2-methylpropyl)amino)quinolin-6-yl)pyrimidin-2-yl)propan-2-ol]	10000 to 25000
CC(C)(O)c1ncc(-c2ccc3ncc(Cl)c(NC(CCF)c4ccccc4F)c3c2)cn1 (racemic) [Example 230, 2-(5-(3-chloro-4-((3-fluoro-1-(2-fluorophenyl)propyl)amino)quinolin-6-yl)pyrimidin-2-yl) propan-2-ol]	< 1000
CC(Nc1c(Cl)cnc2ncc(-c3ccc(C(C)(C)O)cc3)cc12)c1ccccc1F (racemic) [Example 231, 2-(4-(6-chloro-5-((1-(2-fluorophenyl)ethyl)amino)-1,8-naphthyridin-3-yl)phenyl)propan-2-ol]	10000 to 25000
CC(C)(O)c1ccc(-c2ccc3ncc(Cl)c(NC(CCF)c4ccccc4F)c3c2)cc1 (racemic) [Example 232, 2-(4-(3-chloro-4-((3-fluoro-1-(2-fluorophenyl)propyl)amino)quinolin-6-yl)phenyl)propan-2-ol]	< 1000
CC(Nc1c(Cl)cnc2cc(F)c(-c3cnc(C(C)(C)O)nc3)nc12)c1cccc(N)c1 (racemic) [Example 239, 2-(5-(8-((1-(3-aminophenyl)ethyl)amino)-7-chloro-3-fluoro-1,5-naphthyridin-2-yl)pyrimidin-2-yl)propan-2-ol]	< 1000
CC(Nc1c(Cl)cnc2cc(F)c(-c3ccc(C4(O)CCC(C(=O)O)CC4)cc3)cc12)c1ccccc1F (racemic) [Example 251, 4-(4-(3-chloro-7-fluoro-4-((1-(2-fluorophenyl)ethyl)amino)quinolin-6-yl)phenyl)-4-hydroxycyclohexane-1-carboxylic acid]	< 1000
CC(Nc1c(Cl)cnc2ccc(-c3cnc(C(C)(C)O)nc3)c(F)c12)c1ccccc1F (racemic) [Example 253, 2-(5-(3-chloro-5-fluoro-4-((1-(2-fluorophenyl)ethyl)amino)quinolin-6-yl)pyrimidin-2-yl)propan-2-ol]	< 1000

Further lines, results first:

IC50 [nM]	SMILES
< 1000	CC(Nc1c(Cl)cnc2cc(F)c(-c3ccc(C4(CO)CC4)cc3)cc12)c1ccccc1F (racemic) [Example 264, (1-(4-(3-chloro-7-fluoro-4-((1-(2-fluorophenyl)ethyl)amino)quinolin-6-yl)phenyl)cyclopropyl)methanol]
< 1000	CC(Nc1c(Cl)cnc2cc(F)c(-c3cnc(N4CCC(CC(=O)O)CC4)nc3)cc12)c1ccccc1F (racemic) [Example 266, 2-(1-(5-(3-chloro-7-fluoro-4-((1-(2-fluorophenyl)ethyl)amino)quinolin-6-yl)pyrimidin-2-yl)piperidin-4-yl)acetic acid]
< 1000	CC(Nc1c(Cl)cnc2cc(F)c(-c3cc(F)c(C(C)(C)O)c(F)c3)cc12)c1ccccc1F (racemic) [Example 267, 2-(4-(3-chloro-7-fluoro-4-((1-(2-fluorophenyl)ethyl)amino)quinolin-6-yl)-2,6-difluorophenyl)propan-2-ol]
10000 to 25000	CC(Nc1ccnc2cc(F)c(-c3cnc(C4(O)CCOCC4)nc3)cc12)c1ccccc1F (racemic) [Example 287, 4-(5-(7-fluoro-4-((1-(2-fluorophenyl)ethyl)amino)quinolin-6-yl)pyrimidin-2-yl)tetrahydro-2H-pyran-4-ol]
< 1000	CC(Nc1c(Cl)cnc2cc(F)c(-c3cnc(C(C)(C)O)cn3)cc12)c1ccccc1F (racemic) [Example 294, 2-(5-(3-chloro-7-fluoro-4-((1-(2-fluorophenyl)ethyl)amino)quinolin-6-yl)pyrazin-2-yl)propan-2-ol]
< 1000	Cc1nc2c(F)cc(-c3cnc(C(C)(C)O)nc3)cc2c(NC(C)c2ccccc2F)c1Cl (racemic) [Example 298, 2-(5-(3-chloro-8-fluoro-4-((1-(2-fluorophenyl)ethyl)amino)-2-methylquinolin-6-yl)pyrimidin-2-yl)propan-2-ol]
< 1000	CC(Nc1c(Cl)cnc2cc(F)c(-c3cnc(C(O)CO)nc3)cc12)c1ccccc1F (racemic) [Example 300, 1-(5-(3-chloro-7-fluoro-4-((1-(2-fluorophenyl)ethyl)amino)quinolin-6-yl)pyrimidin-2-yl)ethane-1,2-diol]
10000 to 25000	Cc1nc2c(F)cc(-c3cnc(C(C)(C)O)nc3)cc2c(NC(C)c2ccc(F)cc2)c1Cl (racemic) [Example 301, 2-(5-(3-chloro-8-fluoro-4-((1-(4-fluorophenyl)ethyl)amino)-2-methylquinolin-6-yl)pyrimidin-2-yl)propan-2-ol]
< 1000	Cc1nc2ccc(-c3ccc(C(C)(C)O)cc3)cc2c(NC(C)c2ccccc2F)c1Cl (racemic) [Example 308, 2-(4-(3-chloro-4-((1-(2-fluorophenyl)ethyl)amino)-2-methylquinolin-6-yl)phenyl) propan-2-ol]
